“Also recorded” adds a separate entry of the source.
System: Perkinsus proliferation
Assay: Effect of selectable marker candidates on Perkinsus proliferation (OD600 over time, visual inspection of treated cells)
Type: cell-based, Perkinsus marinus
Conditions: for position of OD600 curve in FIG. 2: at 15 days, curves ranked top to bottom; for effect on parasite growth / Perkinsus proliferation: FIG. 2, optical density (OD600) as a function of time in days
Procedure: FIG. 2 is a graph of Optical density (OD600) as a function of time, in days, for various selectable marker candidates for their effect on Perkinsus proliferation. […]
G418 (800 μg/ml) was highly toxic, with visible effects six days after treatment. […] Visual inspection of the treated cells indicated changes in the morphology and cell death. These changes were more evident for G418 and pyrimethamine than with the CAP treatment.

Row | SMILES | position of OD600 curve in FIG. 2 (100 μg/ml) | position of OD600 curve in FIG. 2 (400 μg/ml) | time to visible effects after treatment (800 μg/ml) | toxicity to the parasite (800 μg/ml) | position of OD600 curve in FIG. 2 (800 μg/ml) | time to cells dying after treatment (100 and 400 μg/ml) [days] | effect on parasite growth / Perkinsus proliferation | changes in the morphology and cell death, visual inspection of treated cells (compared with the CAP treatment) | effect on parasite growth (lower doses tested, 100 and 400 μg/ml) | position of OD600 curve in FIG. 2 (50 μg/ml) | effect on parasite growth / Perkinsus proliferation (listed as CAP)
1 | CN[C@@H]1[C@@H](O)[C@@H](O[C@@H]2[C@@H](O)[C@H](O[C@H]3O[C@H]([C@@H](C)O)[C@@H](O)[C@H](O)[C@H]3N)[C@@H](N)C[C@H]2N)OC[C@]1(C)O [G418] | lowest curve | seventh highest curve | six | highly toxic | sixth highest curve | 15 | inhibited parasite growth; also recorded: inhibition of Perkinsus proliferation, especially G418 | more evident | still inhibited parasite growth |  | 
2 | O=C(N[C@H](CO)[C@H](O)c1ccc([N+](=O)[O-])cc1)C(Cl)Cl [chloramphenicol] | fourth highest curve | fifth highest curve |  |  |  |  | inhibited parasite growth |  |  | third highest curve | inhibition of Perkinsus proliferation
